Patent publication US9113641B2, “Probiotic bacteria and regulation of fat storage” (Arla Foods amba, priority 2007, dated 2015)

Columns and labels:
Assay type in all cases: cell-based, human
[1] = tested on: FIAF expression in HCT116 cells; assay: FIAF expression in HCT116 cells by real time PCR after stimulation with bacteria, media or compounds; details: concentration curve, 100 μM CLA for 6 h and 24 h
Experimental: (§1) The human colorectal adenocarcinoma cell lines HCT116 (CCL-247, deposit at ATCC), LoVo (CCL-229, deposit ATCC), HT29 (HTB-38, deposit ATCC) and SW480 (CCL-228, deposit ATCC) were grown and maintained according to supplier's recommendations.
Strain F19 was always pre-cultured for 6-8 h at 37° C. on a rotating platform (225 rpm). Pre-cultures were then added to pre-warmed deMan Rogosa Sharpe (MRS) medium (dilution 1:20). The cultures were cultivated overnight prior to use. Bacterial concentration at OD600nm was determined: 1 OD600nm=1×10^8 F19/ml. The required amount of F19 was resuspended in an appropriate volume of the respective pre-warmed medium without antibiotics.
Co-culture was prepared by washing the colonic cells with warm PBS. Cells were incubated with 2×10^7/ml of F19 or with medium alone. The experiment was terminated by thoroughly washing the plates with ice-cold PBS.
As a control, F19 was heat-inactivated by incubating at 80° C. for 30 minutes. […]
RNA was prepared using the Qiagen RNeasy Mini Kit following the manufacturer's protocol and cDNA was synthesised using the cDNA synthesis kit from Invitrogen according to protocol. Semi-quantitative, SYBR Green based (Applied Biosystems) real time PCR was used to detect transcripts. […] The mRNA levels of each sample were determined in triplicates. […]

[2] = tested on: Adipose differentiation-related protein (ADRP); assay: Expression of PPARγ target gene ADRP in HCT116 cells (real time PCR); details: 100 μM CLA for 24 h
Experimental: as §1
(§2) Conjugated linoleic acid (CLA; 94594) was purchased as a trans-10, cis-12 mix from Sigma. PPARγ and PPARα ligands Troglitazone (5 μM) and WY-14643 (100 μM) were products from Cayman.
(§3) RNA was prepared using the Qiagen RNeasy Mini Kit following the manufacturer's protocol and cDNA was synthesised using the cDNA synthesis kit from Invitrogen according to protocol. Semi-quantitative, SYBR Green based (Applied Biosystems) real time PCR was used to detect transcripts. Forward and reverse primers were mixed at equal concentration and used at a final concentration of 0.2 μM. ADRP Fw: 5′-[…]-3′ (SEQ ID NO:1), Rv: 5′-[…]-3′ (SEQ ID NO:2); Beta-actin Fw: 5′-CCTGGCACCCAGCACAAT-3′ (SEQ ID NO:3), Rv: 5′-[…]-3′ (SEQ ID NO:4); FIAF Fw: 5′-AAAGAGGCTGCCCGAGAT-3′ (SEQ ID NO:5), Rv: 5′-TCTCCCCAACCTGGAACA-3′ (SEQ ID NO:6); ME Fw: 5′-[…]-3′ (SEQ ID NO:7), Rv: 5′-[…]-3′ (SEQ ID NO:8). Each experiment was carried out in sample duplicates. The mRNA levels of each sample were determined in triplicates. Real time PCR was performed using the ABI 7500 System for data acquisition and analysis by using the ABI 7500 System Sequence Detection software. […]

malic enzyme (ME) = assay: Expression of PPARα target gene ME in HCT116 cells (real time PCR); details: 100 μM CLA for 24 h
Experimental: as §1, §2, §3

[3] = tested on: FIAF expression in HT29 cells, PPARγ incapacitated by siRNA; assay: FIAF expression in HT29 cells with PPARγ siRNA
Experimental: as §1
RNA was prepared using the Qiagen RNeasy Mini Kit following the manufacturer's protocol and cDNA was synthesised using the cDNA synthesis kit from Invitrogen according to protocol. Semi-quantitative, SYBR Green based (Applied Biosystems) real time PCR was used to detect transcripts. Forward and reverse primers were mixed at equal concentration and used at a final concentration of 0.2 μM. ADRP Fw: 5′-[…]-3′ (SEQ ID NO:1), Rv: 5′-[…]-3′ (SEQ ID NO:2); Beta-actin Fw: 5′-CCTGGCACCCAGCACAAT-3′ (SEQ ID NO:3), Rv: 5′-[…]-3′ (SEQ ID NO:4); FIAF Fw: 5′-AAAGAGGCTGCCCGAGAT-3′ (SEQ ID NO:5), Rv: 5′-TCTCCCCAACCTGGAACA-3′ (SEQ ID NO:6); ME Fw: 5′-[…]-3′ (SEQ ID NO:7), Rv: 5′-[…]-3′ (SEQ ID NO:8). Each experiment was carried out in sample duplicates. The mRNA levels of each sample were determined in triplicates. Real time PCR was performed using the ABI 7500 System for data acquisition and analysis by using the ABI 7500 System Sequence Detection software. Data is presented as mean values with standard errors.
Elimination of PPAR transcripts from HT29 cells was accomplished by Dharmacons readymade siRNA products (SMARTpool Human PPARG). […]

## Conjugated linoleic acid [CLA]
[1]
  FIAF expression induced by CLA, dose and time dependence: upregulate FIAF expression in a dose and time dependent manner
[2]
  Expression of PPARγ target gene ADRP: increased expression
Malic enzyme (ME)
  Expression of PPARα target gene ME: increased expression
[3]
  FIAF expression when PPARγ is incapacitated by siRNA: no longer enhanced
